# Measured values reported in patent publication US20130172244A1, “SUBCUTANEOUS THERAPEUTIC USE OF DPP-4 INHIBITOR” (priority 2011, published 2013).
# Ends that are not written are not given here.
# Legend:
# [1] = system: rats fed a high-fat diet (diet induced obesity); assay: Chronic treatment in non-diabetic model of diet induced obesity: body weight, total body fat, liver fat, intramyocellular fat (MRS); type: in vivo; conditions: 6 weeks, linagliptin 10 mg/kg, sibutramine 5 mg/kg; for Body weight % baseli. / Intra-myocellular fat % baseli. / Liver fat % baseli. / Total body fat % baseli.: versus baseline; for Body weight % contr. / Intra-myocellular fat % contr. / Liver fat % contr. / Total body fat % contr.: versus control; for Intra-myocellular fat % baseli. / Liver fat % baseli. / Total body fat % baseli. / Intra-myocellular fat % contr. / Liver fat % contr. / Total body fat % contr.: MRS
# Protocol: Magnetic resonance spectroscopy (MRS) analysis of total body fat, muscle fat, and liver fat is performed before treatment and at the end of the study.
# [2] = system: normal-weight male Sprague-Dawley rats; assay: Acute s.c. dosing, nocturnal food intake in normal-weight rats; type: in vivo; conditions: linagliptin 0.1-0.5 mg/kg, GLP-1 0.2-0.4 mg/kg
# Protocol: (§1) However, it is not known whether DPP-IV inhibition in conjunction with glucagon-like peptide (GLP)-1 administration would influence body weight.
# (§2) Materials and methods: Normal-weight and DIO male Sprague-Dawley rats were used for acute and chronic dosing experiments, respectively. All rats were stratified to treatment groups according to individual body weight and whole-body fat mass. Linagliptin+GLP-1 combination treatment was evaluated in both acute and chronic treatment settings and compared with monotherapy and vehicle controls. […] For comparison, DIO rats were exposed to 28 days of liraglutide monotherapy. All drugs were administered twice daily subcutaneously (s.c.). […] In comparison, chronic liraglutide (0.2 mg/kg) treatment evoked a long-lasting hypophagic response with a weight loss of −10.8±0.5% and 12.2±0.6% at day 14 and 28, respectively.
# [3] = system: DIO male Sprague-Dawley rats; assay: Chronic s.c. dosing, body weight and food intake in diet-induced obese (DIO) rats; type: in vivo; conditions: DIO rat, s.c. twice daily
# Protocol: as §1, §2
# [4] = 2 h postprandial blood glucose excursions in patients with type 2 diabetes; type: in vivo, human; conditions: Day 1; oral doses ≧2.5 mg
# [5] = system: non-obese-diabetic (NOD) mice; assay: Onset of diabetes and beta-cell mass in non-obese-diabetic (NOD) mice; type: in vivo; conditions: female NOD mice
# Source text: Though reduced pancreatic T-cell migration and altered cytokine production is considered important players for the onset of insulinitis the exact mechanism and effects on the pancreatic cell pool is still incompletely understood.
# Bi-weekly plasma samples are obtained to determine onset of diabetes (BG>11 mmol/l).
# [6] = system: RIP-B7.1 tg mice; assay: Diabetes development in RIP-B7.1 transgenic mice after proinsulin/insulin A-chain plasmid vaccination; type: in vivo
# Source text: Dipeptidyl peptidase (DPP)-4 inhibitors block incretin degradation by DPP-4. […] As in humans, diabetes development in this model critically depends on activated CD8 T cells. Diabetes develops in RIP-B7.1 tg mice after a single intramuscular (i.m.) vaccination (vac) of proinsulin (PI) plasmid DNA.
# Vac A: Diabetes is induced using a PI-encoding plasmid resulting in an aggressive insulitis. Vac B: vac with insulin A-chain encoding plasmid results in a delayed diabetes development compared to vac A. With vac A (n=20 tg mice), diabetes incidence is 80% 5 weeks after vac, whereas vac B (n=34) results in 79% incidence after 12 wks in placebotreated mice.
# [7] = clinical; conditions: human, urine, po
# [8] = Safety and tolerability in people with type 2 diabetes
# [9] = Pharmacokinetics of BI 1356 in patients with type 2 diabetes, multiple oral doses once daily for 12 days
# [10] = 2.5 mg oral once daily, steady state (Day 12), gMean (gCV)
# [11] = 10 mg oral once daily, steady state (Day 12), gMean (gCV)
molecule,measurement,setting,value
"CC(C)CC(N(C)C)C1(c2ccc(Cl)cc2)CCC1 (stereo not drawn) [Sibutramine, reference compound]",Body weight % baseli.,[1],+1%
same,Body weight % contr.,[1],−12%
same,Intra-myocellular fat % baseli.,[1],−34%
same,Liver fat % baseli.,[1],−29%
same,Total body fat % baseli.,[1],−0.4%
same,Intra-myocellular fat % baseli.,[1]; listed as sibutramine,−34%
same,Intra-myocellular fat % contr.,[1],−55%
same,Liver fat % contr.,[1],−30%
same,Total body fat % contr.,[1],−12%
same,Liver fat % contr.,[1]; listed as sibutramine,−30%
same,Total body fat % contr.,[1]; listed as sibutramine,−12%
"GLP-1: native glucagon-like peptide (GLP)-1 (7-36) (HAEGTFTSDVSSYLEGQAAKEFIAWLVKGR; ends and bridges not checked; UniProt P01275 98-127, looked up)",effect on nocturnal food intake,[2],rapid-onset suppression of food intake
same,effect of 14 days of monotherapy,[3],no effect
CC#CCn1c(N2CCC[C@@H](N)C2)nc2c1c(=O)n(Cc1nc(C)c3ccccc3n1)c(=O)n2C [linagliptin],decrease in 2 h postprandial blood glucose excursions,[4],≥ 80%
same,Body weight % baseli.,[1],+12%
same,Body weight % contr.,[1],−3%
same,Body weight % contr.,[1]; listed as Linagliptin,−3%
same,Intra-myocellular fat % baseli.,[1],−24%
same,Liver fat % baseli.,[1],−30%
same,Total body fat % baseli.,[1],+5%
same,Intra-myocellular fat % baseli.,[1]; listed as Linagliptin,−24%
same,Intra-myocellular fat % contr.,[1],−36%
same,Liver fat % contr.,[1],−39%
same,Total body fat % contr.,[1],−5%
same,Liver fat % contr.,[1]; listed as Linagliptin,−39%
same,Total body fat % contr.,[1]; listed as Linagliptin,−5%
same,incidence of diabetes (BG>11 mmol/l) at the end of the study period,"[5]; 60 days, diet with 0.083 g linagliptin/kg chow (3-10 mg/kg p.o.), control 18 of 30",9 out of 30
same,"beta cell mass (insulin immunoreactivity, stereology)","[5]; 60 days, linagliptin in diet, vehicle 0.18±0.03",0.48±0.09 mg
same,total islet mass,"[5]; 60 days, linagliptin in diet, vehicle 0.40±0.04",0.70 ± 0.09 mg
same,peri-islet infiltrating lymphocytes,"[5]; 60 days, linagliptin in diet, vehicle 1.06±0.15",0.79 ± 0.12 mg
same,active plasma GLP-1 at termination,[5]; versus control,higher
same,Serum levels of the regulatory cytokine IL-10,[6]; linagliptin 3 mg/kg/day oral,significantly upregulated
same,islet insulin content after diabetes onset,[6]; linagliptin 3 mg/kg/day oral,partially preserved
same,number of islet antigen-specific CD8 T cells expressing IFN-γ (FACS and ELISPOT),[6]; linagliptin 3 mg/kg/day oral versus placebo,equal number
same,diabetes incidence,"[6]; vac A (PI-encoding plasmid), after wk 8 of follow-up, linagliptin 3 mg/kg/day oral, placebo 80% at 5 wks",80%
same,diabetes incidence,"[6]; vac B (insulin A-chain plasmid), during 14 wks follow up, linagliptin 3 mg/kg/day oral, control 92% wk 14",≤ 62%
same,effect on nocturnal food intake,[2],no effect
same,effect of 14 days of monotherapy,[3],no effect
same,CL renal,[7],14 to 70 mL/min
same,CL renal,[7]; 5 mg,~70 mL/min
same,safety and tolerability,[8],placebo-like safety and tolerability
same,"feT,ss","[9]; 1 mg oral once daily, steady state (Day 12), gMean (gCV)",3.34 (38.3) %
same,fe0-24,"[9]; 2.5 mg oral once daily for 12 days, gMean (gCV)",0.139 (51.2) %
same,"AUCT,ss",[9]; [10],117 (16.3) nmol · h/L
same,"feT,ss",[9]; [10],3.06 (45.1) %
same,fe0-24,"[9]; 5 mg oral once daily for 12 days, gMean (gCV)",0.453 (125) %
same,"feT,ss","[9]; 5 mg oral once daily, steady state (Day 12), gMean (gCV)",6.27 (42.2) %
same,fe0-24,"[9]; 10 mg oral once daily for 12 days, gMean (gCV)",0.919 (115) %
same,"T1/2,ss",[9]; [11],130 (11.7) h
same,"feT,ss",[9]; [11],3.22 (34.2) %
same,form and path of excretion,"[9]; human, in vivo",primarily excreted unchanged via the bile
same,"mean accumulation ratio RA,AUC",[9]; oral doses above 1 mg once daily,≤ 1.4
same,fraction excreted via the kidney,[9]; therapeutic oral dose levels,< 7 % of the administered oral dose
same,main route of excretion,[9]; therapeutic oral dose levels,mainly excreted via the liver
